Laboratory results: US20200246347A1, “Substituted Pyrrolopyridine-Derivatives” (BAYER PHARMA AKTIENGESELLSCHAFT, priority 2017, published 2020)

Tests used:
pSer376-SLP-76 = experiment: Phosphorylation assay in human cell line (Jurkat E6.1 overexpressing FLAG-tagged SLP-76, a-CD3 stimulated); format: cell-based; conditions: 30 min at 37° C., Jurkat E6.1 cells; for % amount of pSer376-SLP-76 @ 10 μM: 10 μM compound; for % amount of pSer376-SLP-76 @ 20 μM: 20 μM compound
Protocol: Phosphorylation assays were carried out in Jurkat E6.1 cells from American Type Culture Collection (ATCC) stably overexpressing human FLAG-tagged SLP-76 (proprietary). […] Applied compounds were tested at either fixed concentration of 10 μmol/L and 20 μmol/L or in a 8 point dose response titration of increase compound concentration with 10 nmol/L. 50 nmol/L. 100 nmol/L. 500 nmol/L. 1 μmol/L. 5 μmol/L. 10 μmol/L and 20 μmol/L in triplicates. The cells were washed once in phosphate-buffered saline (pH 7.4). Cells were lysed using a lysis buffer containing 50 mmol/L Tris-Cl (pH 7.5). 150 mM NaCl. 2 mM EDTA. 1% Triton-X 100. 0.5% Na-DOC. 0.1% SDS. […] Probe antibodies used were a rabbit monoclonal antibody supernatant raised against human phospho-Ser376-SLP-76 peptide (proprietary) and for mormalization an a-alpha-Tubulin. mouse monoclonal antibody (Sigma #T9026). […] Cells with a-CD3 treatment only were used as negative control (min control. which represent the minimally possible inhibition of pSer376-SLP-76 by a test compound)
AUC values of each respective test sample were normalized using the AUC of housekeeping gene alpha-Tubulin and AUC of pSer376-SLP-76 of the min control. The percentage of the amount of pSer-SLP-76 in the treatment samples was calculated using the max control and min control values of the respective Peggy Sue™ run.

MAP4K1 = MAP4K1 (Homo sapiens, UniProt Q92918); experiment: biochemical
Sequence of MAP4K1 (Q92918 whole entry): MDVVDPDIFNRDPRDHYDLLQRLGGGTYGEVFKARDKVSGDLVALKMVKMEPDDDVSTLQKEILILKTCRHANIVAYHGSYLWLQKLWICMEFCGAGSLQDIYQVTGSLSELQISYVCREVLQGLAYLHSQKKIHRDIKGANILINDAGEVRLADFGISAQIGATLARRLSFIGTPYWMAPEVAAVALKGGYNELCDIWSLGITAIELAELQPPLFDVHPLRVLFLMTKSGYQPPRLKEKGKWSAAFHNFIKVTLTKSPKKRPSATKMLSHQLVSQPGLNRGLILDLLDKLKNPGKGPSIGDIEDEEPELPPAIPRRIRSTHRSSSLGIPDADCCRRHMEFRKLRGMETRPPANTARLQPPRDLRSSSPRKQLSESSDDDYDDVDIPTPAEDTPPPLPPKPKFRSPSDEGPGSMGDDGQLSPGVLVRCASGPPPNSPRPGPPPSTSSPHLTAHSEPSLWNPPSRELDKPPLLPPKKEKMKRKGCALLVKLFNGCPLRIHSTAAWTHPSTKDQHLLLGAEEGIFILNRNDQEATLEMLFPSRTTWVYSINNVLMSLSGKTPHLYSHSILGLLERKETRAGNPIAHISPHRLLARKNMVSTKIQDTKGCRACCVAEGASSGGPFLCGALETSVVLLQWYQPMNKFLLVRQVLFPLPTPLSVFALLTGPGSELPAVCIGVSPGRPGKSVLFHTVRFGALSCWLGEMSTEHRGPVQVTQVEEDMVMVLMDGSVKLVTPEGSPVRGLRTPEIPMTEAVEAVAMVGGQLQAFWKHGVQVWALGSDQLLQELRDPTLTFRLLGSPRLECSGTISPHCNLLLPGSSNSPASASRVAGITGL

SMILES | % amount of pSer376-SLP-76 @ 10 μM (pSer376-SLP-76) [%] | % amount of pSer376-SLP-76 @ 20 μM (pSer376-SLP-76) [%] | IC50 (MAP4K1) [nM]
O=C(NCCN1CCOCC1)Nc1ccc(Oc2ccnc3[nH]cc(C(F)(F)F)c23)cc1 [Example 1, 1-[2-(morpholin-4-yl)ethyl]-3-(4-{[3-(trifluoromethyl)-1H-pyrrolo[2,3-b]pyridin-4-yl]oxy}phenyl)urea] | 40.8 | 16.0 | 
Cc1cc(NC(=O)NCCCN2CCOCC2)ccc1Oc1ccnc2[nH]cc(C(F)(F)F)c12 [Example 4, 1-(3-methyl-4-{[3-(trifluoromethyl)-1H-pyrrolo[2,3-b]pyridin-4-yl]oxy}phenyl)-3-[3-(morpholin-4-yl)propyl]urea] | 45.6 | 18.1 | 74
N#Cc1cc(NC(=O)NCCCN2CCOCC2)ccc1Oc1ccnc2[nH]cc(C(F)(F)F)c12 [Example 7, 1-(3-cyano-4-{[3-(trifluoromethyl)-1H-pyrrolo[2,3-b]pyridin-4-yl]oxy}phenyl)-3-[3-(morpholin-4-yl)propyl]urea] |  |  | 138
Cc1cc(NC(=O)NCCN2CCOCC2)ccc1Oc1ccnc2[nH]cc(C(F)(F)F)c12 [Example 5, 1-(3-methyl-4-{[3-(trifluoromethyl)-1H-pyrrolo[2,3-b]pyridin-4-yl]oxy}phenyl)-3-[2-(morpholin-4-yl)ethyl]urea] | 48.1 | 25.3 | 
N#Cc1cc(NC(=O)NCCN2CCOCC2)ccc1Oc1ccnc2[nH]cc(C(F)(F)F)c12 [Example 6, 1-(3-cyano-4-{[3-(trifluoromethyl)-1H-pyrrolo[2,3-b]pyridin-4-yl]oxy}phenyl)-3-[2-(morpholin-4-yl)ethyl]urea] |  |  | 212
